For 13 compounds, IC50 results are on record in patent US20070021419A1, “2-Aminophenyl-4-phenylpyrimidines as kinase inhibitors” (Cyclacel Limited, priority 2003, published 2007).

SMILES strings stand for the structures.

For one test, the target named is CDK2/cyclin E (Homo sapiens, UniProt P24941). Description: Kinase assay, radioactive phosphate incorporation, CDK2/cyclin E. In kind it is biochemical. The conditions noted are these: 100 μM ATP, 30° C.; read-out: Kinase inhibition IC50 CDK2/cyclin E. Put shortly:
(§1)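 Inhibition is measured as reduced transfer of radioactive phosphate to a polypeptide substrate by 2-4 μg of recombinant enzyme. Mixtures with Mg/ATP (100 μM ATP, 15 mM MgCl2, [γ-32P]-ATP) in pH 7.4 MOPS-based buffer incubate at 30° C, are stopped on ice, filtered and counted.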

In the next test the target is CDK2/cyclin A (Homo sapiens, UniProt P24941). The test can be described thus: Kinase assay, radioactive phosphate incorporation, CDK2/cyclin A. Type of test: biochemical. The note with it: 100 μM ATP, 30° C.; read-out: Kinase inhibition IC50 CDK2/cyclin A. On the procedure:
(§2) The compounds from the examples above were investigated for their ability to inhibit the enzymatic activity of various protein kinases. This was achieved by measurement of incorporation of radioactive phosphate from ATP into appropriate polypeptide substrates. Recombinant protein kinases and kinase complexes were produced or obtained commercially. Assays were performed using 96-well plates and appropriate assay buffers (typically 25 mM β-glycerophosphate, 20 mM MOPS, 5 MM EGTA, 1 mM DTT, 1 mM Na3VO3, pH 7.4), into which were added 2-4 μg of active enzyme with appropriate substrates. The reactions were initiated by addition of Mg/ATP mix (15 mM MgCl2+100 μM ATP with 30-50 kBq per well of [γ-^32P]-ATP) and mixtures incubated as required at 30° C. Reactions were stopped on ice, followed by filtration through p81 filterplates or GF/C filterplates (Whatman Polyfiltronics, Kent, UK). After washing 3 times with 75 mM aq orthophosphoric acid, plates were dried, scintillant added and incorporated radioactivity measured in a scintillation counter (TopCount, Packard Instruments, Pangbourne, Berks, UK). Compounds for kinase assay were made up as 10 mM stocks in DMSO and diluted into 10% DMSO in assay buffer.

Another test addresses CDK1/cyclin B (Homo sapiens, UniProt P06493). The test can be described thus: Kinase assay, radioactive phosphate incorporation, CDK1/cyclin B. Type of test: biochemical. The conditions noted are these: 100 μM ATP, 30° C.; read-out: Kinase inhibition IC50 CDK1/cyclin B. How it is done: as §2
Test [1] deals with transformed human cell lines (A549, HT29, Saos-2). The test can be described thus: 72-h MTT cytotoxicity assay, average of cell lines. Type of test: cell-based. The note with it: read-out: 72-h MTT IC50 Average, average of A549, HT29, Saos-2. On the procedure:
(§3) The compounds from the examples above were subjected to a standard cellular proliferation assay using human tumour cell lines obtained from the ATCC (American Type Culture Collection, 10801 University Boulevard, Manessas, Va. 20110-2209, USA). Standard 72-h MTT (thiazolyl blue; 3-[4,5-dimethylthiazol-2-yl]-2,5-diphenyltetrazolium bromide) assays were performed. In short: cells were seeded into 96-well plates according to doubling time and incubated overnight at 37° C. Test compounds were made up in DMSO and a 1/3 dilution series prepared in 100 μL cell media, added to cells (in triplicates) and incubated for 72 ho at 37° C. MTT was made up as a stock of 5 mg/mL in cell media and filter-sterilised. Media was removed from cells followed by a wash with 200 μL PBS. MTT solution was then added at 20 μL per well and incubated in the dark at 37° C. for 4 h. MTT solution was removed and cells again washed with 200 μL PBS. MTT dye was solubilised with 200 μL per well of DMSO with agitation.
On the technique in general: Tetrazolium dyes change colour on reduction, which living cells bring about.

For the next test, the system named is A549. The test can be described thus: 72-h MTT cytotoxicity assay, A549. The conditions noted are these: Homo sapiens, read-out: 72-h MTT IC50 A549, A549 cell line. Type of test: cell-based. How it is done: as §3
In a further test the test system is Saos-2. The test can be described thus: 72-h MTT cytotoxicity assay, Saos-2. Type of test: cell-based. The note with it: Homo sapiens, read-out: 72-h MTT IC50 Saos-2, Saos-2 cell line. How it is done: as §3
The target of the next test is GSK3β (Homo sapiens, UniProt P49841). The test can be described thus: Kinase assay, radioactive phosphate incorporation, GSK3β. The note with it: 100 μM ATP, 30° C.; read-out: Kinase inhibition IC50 GSK3β. In kind it is biochemical. Put shortly: as §1
The next test concerns the target CDK4/cyclin D1 (Homo sapiens, UniProt P11802). The test can be described thus: Kinase assay, radioactive phosphate incorporation, CDK4/cyclin D1. The note with it: 100 μM ATP, 30° C.; read-out: Kinase inhibition IC50 CDK4/cyclin D1. In kind it is biochemical. On the procedure: as §2
A further test relates to HT29. The test can be described thus: 72-h MTT cytotoxicity assay, HT29. Type of test: cell-based. The conditions noted are these: Homo sapiens, HT-29, read-out: 72-h MTT IC50 HT29, HT29 cell line. How it is done:
as §3

For another test, the target named is CDK9/cyclin T1 (Homo sapiens, UniProt P50750). Description: Kinase assay, radioactive phosphate incorporation, CDK9/cyclin T1. In kind it is biochemical. The note with it: 100 μM ATP, 30° C.; read-out: Kinase inhibition IC50 CDK9/cyclin T1. Put shortly:
as §1

The next test deals with CDK7/cyclin H (Homo sapiens, UniProt P50613). The test can be described thus: Kinase assay, radioactive phosphate incorporation, CDK7/cyclin H. Type of test: biochemical. The note with it: 100 μM ATP, 30° C.; read-out: Kinase inhibition IC50 CDK7/cyclin H. Put shortly: as §1
Sequence of CDK7/cyclin H (P50613 whole entry, species assumed): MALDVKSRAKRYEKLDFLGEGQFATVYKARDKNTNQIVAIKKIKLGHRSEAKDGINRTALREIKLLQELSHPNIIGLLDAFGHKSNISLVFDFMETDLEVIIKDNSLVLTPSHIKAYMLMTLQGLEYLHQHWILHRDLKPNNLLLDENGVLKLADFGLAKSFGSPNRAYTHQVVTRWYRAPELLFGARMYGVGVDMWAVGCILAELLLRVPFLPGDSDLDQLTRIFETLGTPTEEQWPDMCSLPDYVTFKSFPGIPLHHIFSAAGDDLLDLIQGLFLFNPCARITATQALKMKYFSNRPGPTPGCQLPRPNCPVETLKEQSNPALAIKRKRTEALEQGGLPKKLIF
Sequence of CDK7/cyclin H (P51946 whole entry partner, species assumed): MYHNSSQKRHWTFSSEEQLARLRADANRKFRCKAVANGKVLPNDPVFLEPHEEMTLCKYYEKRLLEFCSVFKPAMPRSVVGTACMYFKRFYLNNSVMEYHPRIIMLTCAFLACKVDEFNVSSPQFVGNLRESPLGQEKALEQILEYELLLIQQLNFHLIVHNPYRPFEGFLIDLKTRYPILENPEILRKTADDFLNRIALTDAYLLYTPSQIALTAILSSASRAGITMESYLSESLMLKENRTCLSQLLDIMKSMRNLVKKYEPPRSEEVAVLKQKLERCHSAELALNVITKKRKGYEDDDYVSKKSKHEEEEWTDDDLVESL

Sequence of CDK4/cyclin D1 (P11802 whole entry, species assumed): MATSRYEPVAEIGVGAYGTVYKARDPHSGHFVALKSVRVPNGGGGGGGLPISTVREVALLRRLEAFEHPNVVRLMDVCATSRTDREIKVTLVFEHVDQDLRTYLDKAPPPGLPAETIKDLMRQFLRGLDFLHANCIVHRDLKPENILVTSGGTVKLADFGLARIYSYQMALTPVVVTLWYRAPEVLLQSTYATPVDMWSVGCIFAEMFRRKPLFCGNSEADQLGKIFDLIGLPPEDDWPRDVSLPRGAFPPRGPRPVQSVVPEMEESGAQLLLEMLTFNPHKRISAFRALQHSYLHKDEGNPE
Sequence of CDK4/cyclin D1 (P24385 whole entry partner, species assumed): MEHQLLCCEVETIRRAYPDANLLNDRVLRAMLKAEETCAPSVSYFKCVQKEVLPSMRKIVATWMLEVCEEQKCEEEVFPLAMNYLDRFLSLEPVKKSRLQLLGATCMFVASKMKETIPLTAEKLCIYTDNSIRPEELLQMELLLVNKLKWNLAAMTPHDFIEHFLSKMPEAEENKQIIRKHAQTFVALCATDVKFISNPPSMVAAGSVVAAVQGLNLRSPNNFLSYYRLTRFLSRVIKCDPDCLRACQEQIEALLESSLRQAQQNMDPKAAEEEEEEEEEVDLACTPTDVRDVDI
Sequence of CDK1/cyclin B (P06493 whole entry, species assumed): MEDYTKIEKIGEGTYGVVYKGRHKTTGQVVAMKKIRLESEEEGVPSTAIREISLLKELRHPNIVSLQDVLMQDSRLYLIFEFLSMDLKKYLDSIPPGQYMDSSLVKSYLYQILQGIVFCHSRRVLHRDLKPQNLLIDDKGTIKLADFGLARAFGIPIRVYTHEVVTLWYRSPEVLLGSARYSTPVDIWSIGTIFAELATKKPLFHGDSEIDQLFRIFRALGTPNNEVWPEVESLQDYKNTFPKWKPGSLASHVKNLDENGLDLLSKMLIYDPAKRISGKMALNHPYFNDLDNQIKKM
Sequence of CDK1/cyclin B (P14635 whole entry partner, species assumed): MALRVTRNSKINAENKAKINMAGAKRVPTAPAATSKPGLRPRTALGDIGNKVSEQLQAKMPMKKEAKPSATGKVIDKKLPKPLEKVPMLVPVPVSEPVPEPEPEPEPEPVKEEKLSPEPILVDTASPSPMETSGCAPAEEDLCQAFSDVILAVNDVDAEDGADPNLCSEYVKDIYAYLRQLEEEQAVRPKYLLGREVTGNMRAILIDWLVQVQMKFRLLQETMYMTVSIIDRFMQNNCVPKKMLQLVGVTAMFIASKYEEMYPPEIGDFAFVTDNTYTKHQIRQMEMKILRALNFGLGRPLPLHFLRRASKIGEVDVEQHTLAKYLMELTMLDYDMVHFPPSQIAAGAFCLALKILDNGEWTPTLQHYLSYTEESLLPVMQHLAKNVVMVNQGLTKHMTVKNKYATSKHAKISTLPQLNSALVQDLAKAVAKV
Sequence of GSK3β (P49841 whole entry, species assumed): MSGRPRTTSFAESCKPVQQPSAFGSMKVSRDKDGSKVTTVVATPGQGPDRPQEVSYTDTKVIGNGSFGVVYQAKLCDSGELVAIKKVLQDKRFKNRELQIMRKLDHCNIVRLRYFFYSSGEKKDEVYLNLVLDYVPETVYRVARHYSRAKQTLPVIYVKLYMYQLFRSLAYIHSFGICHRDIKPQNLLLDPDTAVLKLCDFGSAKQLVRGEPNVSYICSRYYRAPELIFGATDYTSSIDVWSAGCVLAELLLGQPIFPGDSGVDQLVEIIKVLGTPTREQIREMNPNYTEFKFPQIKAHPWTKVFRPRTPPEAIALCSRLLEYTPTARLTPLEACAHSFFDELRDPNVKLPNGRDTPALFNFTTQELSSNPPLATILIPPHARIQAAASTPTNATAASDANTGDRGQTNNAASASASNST
Sequence of CDK9/cyclin T1 (P50750 whole entry, species assumed): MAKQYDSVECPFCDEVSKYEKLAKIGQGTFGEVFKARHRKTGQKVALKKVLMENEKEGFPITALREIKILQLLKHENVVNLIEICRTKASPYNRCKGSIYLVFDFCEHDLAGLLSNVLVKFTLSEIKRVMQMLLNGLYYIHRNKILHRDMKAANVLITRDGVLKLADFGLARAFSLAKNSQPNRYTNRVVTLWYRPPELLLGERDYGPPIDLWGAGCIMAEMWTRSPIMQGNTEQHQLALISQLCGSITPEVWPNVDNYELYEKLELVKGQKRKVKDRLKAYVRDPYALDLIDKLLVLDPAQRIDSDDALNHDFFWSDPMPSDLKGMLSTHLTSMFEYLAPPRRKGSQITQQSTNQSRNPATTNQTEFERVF
Sequence of CDK9/cyclin T1 (O60563 whole entry partner, species assumed): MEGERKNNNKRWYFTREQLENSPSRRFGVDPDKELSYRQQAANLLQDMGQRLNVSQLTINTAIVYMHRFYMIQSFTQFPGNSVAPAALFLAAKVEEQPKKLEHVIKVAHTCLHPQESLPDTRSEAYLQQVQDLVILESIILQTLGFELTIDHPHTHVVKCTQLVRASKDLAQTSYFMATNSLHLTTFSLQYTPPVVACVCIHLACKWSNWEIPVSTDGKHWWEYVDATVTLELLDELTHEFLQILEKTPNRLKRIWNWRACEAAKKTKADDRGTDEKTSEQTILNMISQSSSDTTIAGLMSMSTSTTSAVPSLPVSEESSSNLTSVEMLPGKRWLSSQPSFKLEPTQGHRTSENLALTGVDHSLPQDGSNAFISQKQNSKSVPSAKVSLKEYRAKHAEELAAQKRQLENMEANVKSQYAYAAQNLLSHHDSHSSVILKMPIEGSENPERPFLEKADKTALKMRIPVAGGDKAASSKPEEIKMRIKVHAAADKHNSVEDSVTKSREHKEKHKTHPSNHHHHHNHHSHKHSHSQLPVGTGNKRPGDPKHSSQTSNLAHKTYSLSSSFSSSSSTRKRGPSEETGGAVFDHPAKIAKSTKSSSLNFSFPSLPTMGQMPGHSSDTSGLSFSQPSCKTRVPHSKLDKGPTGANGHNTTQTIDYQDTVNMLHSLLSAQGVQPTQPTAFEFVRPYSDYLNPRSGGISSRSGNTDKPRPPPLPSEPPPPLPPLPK

Take `Oc1ccc(Nc2nccc(-c3cccc(Cl)c3)n2)cc1` [Compound 17, 4-[4-(3-Chloro-phenyl)-pyrimidin-2-ylamino]-phenol]: the results for the IC50 on CDK2/cyclin E, at CDK2/cyclin A and at CDK1/cyclin B were 390 nM, 2100 nM and 5300 nM, respectively.

As to `Oc1cccc(Nc2nccc(-c3cccc(Cl)c3)n2)c1` [Compound 18, 3-[4-(3-Chloro-phenyl)-pyrimidin-2-ylamino]-phenol], the figures for the IC50 on CDK2/cyclin E, at CDK2/cyclin A and at CDK1/cyclin B were 1100 nM, 3100 nM and 5500 nM, respectively.

With `CN(C)c1ccc(Nc2nccc(-c3ccc(Cl)c(Cl)c3)n2)cc1` [Compound 20, N-[4-(3,4-Dichloro-phenyl)-pyrimidin-2-yl]-N′,N′-dimethyl-benzene-1,4-diamine], the IC50 in test [1] came out at 32000 ± 6300 nM; in the test on A549 it was 35500 nM; at CDK2/cyclin E it was 6100 nM; with Saos-2, 24700 nM; at GSK3β, 1100 nM; at CDK4/cyclin D1, 20000 nM. Besides, the IC50 worked out at 35800 nM in the test on HT29 and 3900 nM at CDK1/cyclin B.

As for `Oc1ccc(Nc2nccc(-c3ccc(Cl)c(Cl)c3)n2)cc1` [Compound 21, 4-[4-(3,4-Dichloro-phenyl)-pyrimidin-2-ylamino]-phenol], the IC50 in test [1] was determined as 22800 ± 16300 nM; in the test with A549 it was 11700 nM; at CDK2/cyclin E it was 3500 nM; in the test on Saos-2, 41500 nM; on CDK9/cyclin T1, 5400 nM; at CDK4/cyclin D1, 29000 nM. Also, the IC50 in the test with HT29 worked out at 15100 nM; on CDK1/cyclin B, 29000 nM.

As to `CCN(C(C)=O)c1cccc(-c2ccnc(Nc3ccc(OC)cc3)n2)c1` [Compound 23, N-Ethyl-N-{3-[2-(4-methoxy-phenylamino)-pyrimidin-4-yl]-phenyl}-acetamide], the IC50 in test [1] was 13100 ± 9800 nM; with A549 it was 12900 nM; at CDK7/cyclin H, 4300 nM; on CDK2/cyclin E, 1100 nM; at CDK2/cyclin A it was 1200 nM; in the test on Saos-2, 23000 nM. Also, the IC50 at CDK9/cyclin T1 came out at 400 nM; at GSK3β it was 120 nM; at CDK4/cyclin D1, 7600 nM; in the test with HT29 it was 3400 nM; at CDK1/cyclin B, 3600 nM.

As for `CCNc1cccc(-c2ccnc(Nc3ccc(OC)cc3)n2)c1` [Compound 25, [4-(3-Ethylamino-phenyl)-pyrimidin-2-yl]-(4-methoxy-phenyl)-amine], the IC50 worked out at 940 nM at CDK7/cyclin H; 39 nM at CDK2/cyclin E; 30 nM at CDK2/cyclin A; 5 nM at CDK9/cyclin T1; 140 nM on GSK3β; 170 nM on CDK4/cyclin D1. Besides, the IC50 on CDK1/cyclin B is 170 nM.

In the case of `CCNc1cccc(-c2ccnc(Nc3ccc([N+](=O)[O-])cc3)n2)c1` [Compound 26, [4-(3-Ethylamino-phenyl)-pyrimidin-2-yl]-(4-nitro-phenyl)-amine], the IC50 in test [1] came to 1300 ± 300 nM; in the test with A549 it was 1700 nM; on CDK7/cyclin H it was 20000 nM; at CDK2/cyclin E it was 33 nM; on CDK2/cyclin A, 130 nM; in the test on Saos-2, 1100 nM. Also, the IC50 on CDK9/cyclin T1 was found to be 59 nM; at GSK3β, 40 nM; in the test on HT29 it was 1200 nM; at CDK1/cyclin B, 1300 nM.

With `CS(=O)(=O)NCc1cccc(-c2ccnc(Nc3cccc([N+](=O)[O-])c3)n2)c1` [Compound 40, N-{3-[2-(3-Nitro-phenylamino)-pyrimidin-4-yl]-benzyl}-methanesulfonamide], the IC50 in test [1] stood at 2400 ± 1700 nM; in the test on A549, 1600 nM; at CDK7/cyclin H, 880 nM; at CDK2/cyclin E it was 420 nM; in the test on Saos-2, 4300 nM; on CDK9/cyclin T1 it was 1600 nM. The IC50 on GSK3β stood at 5 nM; with HT29, 1200 nM; at CDK1/cyclin B, 270 nM.

For `COc1ccc(Nc2nccc(-c3cccc(Cn4cncn4)c3)n2)cc1` [Compound 42, (4-Methoxy-phenyl)-[4-(3-[1,2,4]triazol-1-ylmethyl-phenyl)-pyrimidin-2-yl]-amine], the IC50 in test [1] was 14400 ± 10100 nM; with A549, 10600 nM; on CDK7/cyclin H, 1100 nM; at CDK2/cyclin E, 3200 nM; with Saos-2 it was 25800 nM; on CDK9/cyclin T1, 220 nM. Also, the IC50 came to 87 nM on GSK3β, 2000 nM on CDK4/cyclin D1, 6700 nM with HT29 and 11000 nM at CDK1/cyclin B.

Take `Clc1ccc(Nc2nccc(-c3cccc(CNCc4ccccc4)c3)n2)cn1` [Compound 48, {4-[3-(Benzylamino-methyl)-phenyl]-pyrimidin-2-yl}-(6-chloro-pyridin-3-yl)-amine]: the IC50 in test [1] worked out at 13000 ± 7700 nM; in the test on A549, 13400 nM; on CDK7/cyclin H, 1700 nM; on CDK2/cyclin E, 1300 nM; on CDK2/cyclin A, 9800 nM; with Saos-2, 20400 nM. In addition, the IC50 came to 1200 nM at CDK9/cyclin T1, 320 nM at GSK3β, 3500 nM on CDK4/cyclin D1 and 5100 nM in the test with HT29.

With `COc1ccc(Nc2nccc(-c3cccc(Cn4ccnc4)c3)n2)cn1` [Compound 59, [4-(3-Imidazol-1-ylmethyl-phenyl)-pyrimidin-2-yl]-(6-methoxy-pyridin-3-yl)-amine], the IC50 at CDK7/cyclin H came out at 500 nM; on CDK2/cyclin E, 1300 nM; at CDK2/cyclin A, 60 nM; on CDK9/cyclin T1 it was 40 nM; on GSK3β it was 70 nM; at CDK4/cyclin D1, 3800 nM. In addition, the IC50 on CDK1/cyclin B turned out to be 120 nM.

With `CN(C)Cc1cccc(-c2ccnc(Nc3cccc([N+](=O)[O-])c3)n2)c1` [Compound 71, [4-(3-Dimethylaminomethyl-phenyl)-pyrimidin-2-yl]-(3-nitro-phenyl)-amine], the IC50 on CDK7/cyclin H came to 30 nM; on CDK2/cyclin E, 10 nM; at CDK2/cyclin A it was 30 nM; at CDK9/cyclin T1, 3 nM; on GSK3β, 30 nM; at CDK4/cyclin D1, 200 nM. The IC50 at CDK1/cyclin B came out at 10 nM.

As for `Cc1ccc(Nc2nccc(-c3cccc(CN4CCCCC4CO)c3)n2)cc1[N+](=O)[O-]` (stereo not shown) [Compound 108, (1-{3-[2-(4-Methyl-3-nitro-phenylamino)-pyrimidin-4-yl]-benzyl}-piperidin-2-yl)-methanol], the IC50 at CDK7/cyclin H is 30 nM; on CDK2/cyclin E it was 60 nM; at CDK2/cyclin A, 440 nM; at CDK9/cyclin T1, under 1 nM; at GSK3β, 20 nM; on CDK4/cyclin D1 it was 1700 nM. The IC50 at CDK1/cyclin B amounted to 1100 nM.
